Source: patent US20050142581A1, “Microrna as ligands and target molecules” (priority 2003, published 2005)
Oligonucleotides are written 5' to 3', each unit as a sugar letter and its base; * is a phosphorothioate linkage, no mark a phosphodiester; rarer units and linkages stand in square brackets, end groups in braces. Plain capitals give the bases only. e = 2'-O-(2-methoxyethyl) (MOE); [5mC] = 5-methylcytosine; d = 2'-deoxy (DNA)

What follows are substances tested on human CD40 mRNA (assay: Inhibition of CD40 mRNA levels by oligonucleotides (real-time RT-PCR)). Conditions: 2'-MOE gapmers, 18 nucleotides, phosphorothioate throughout; averaged from three experiments.
Format: cell-based
Design: concentration or dose not given beside the values
In short: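 Cells at ~80% confluency were transfected with oligonucleotide at 150 nM final using Lipofectin 3.75 μg/ml for 4 h and harvested 16 h after treatment. Poly(A)+ mRNA was taken for TaqMan real-time RT-PCR of CD40, and percent inhibition was derived from a standard curve of untreated control mRNA.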

Substance | % Inhibition (Inhibition of CD40 mRNA Levels by Chimeric Phosphorothioate Oligonucleotides) [%]
19238 (antisense eT*eG*eG*eG*dG*dT*dC*dG*dC*dA*dG*dT*dA*dT*eT*eT*eG*eT) [compound 19238] | 0.00
19239 (antisense eG*eG*eT*eT*dG*dG*dG*dG*dT*dC*dG*dC*dA*dG*eT*eA*eT*eT) [compound 19239] | 19.40
19240 (antisense e[5mC]*eT*eA*eG*dG*dT*dT*dG*dG*dG*dG*dT*dC*dG*e[5mC]*eA*eG*eT) [compound 19240] | 36.32
19241 (antisense eG*eG*eT*eG*dC*dC*dC*dT*dT*dC*dT*dG*dC*dT*eG*eG*eA*e[5mC]) [compound 19241] | 78.91
19242 (antisense e[5mC]*eT*eG*eA*dG*dG*dT*dG*dC*dC*dC*dT*dT*dC*eT*eG*e[5mC]*eT) [compound 19242] | 69.84
19243 (antisense eG*eT*eG*eT*dC*dT*dG*dT*dT*dT*dC*dT*dG*dA*eG*eG*eT*eG) [compound 19243] | 63.32
19244 (antisense eT*eG*eG*eT*dG*dT*dC*dT*dG*dT*dT*dT*dC*dT*eG*eA*eG*eG) [compound 19244] | 42.83
19245 (antisense eA*e[5mC]*eA*eG*dG*dT*dG*dC*dA*dG*dA*dT*dG*dG*eT*eG*eT*e[5mC]) [compound 19245] | 73.31
19246 (antisense eT*eT*e[5mC]*eA*dC*dA*dG*dG*dT*dG*dC*dA*dG*dA*eT*eG*eG*eT) [compound 19246] | 47.72
19247 (antisense eG*eT*eG*e[5mC]*dC*dA*dG*dC*dC*dT*dT*dC*dT*dT*e[5mC]*eA*e[5mC]*eA) [compound 19247] | 61.32
19248 (antisense eT*eA*e[5mC]*eA*dG*dT*dG*dC*dC*dA*dG*dC*dC*dT*eT*e[5mC]*eT*eT) [compound 19248] | 46.82
19249 (antisense eG*eG*eA*e[5mC]*dA*dC*dA*dG*dC*dT*dC*dT*dC*dA*e[5mC]*eA*eG*eG) [compound 19249] | 0.00
19250 (antisense eT*eG*e[5mC]*eA*dG*dG*dA*dC*dA*dC*dA*dG*dC*dT*e[5mC]*eT*e[5mC]*eA) [compound 19250] | 52.05
19251 (antisense eG*eA*eG*e[5mC]*dG*dG*dT*dG*dC*dA*dG*dG*dA*dC*eA*e[5mC]*eA*eG) [compound 19251] | 50.15
19252 (antisense eA*eA*eG*e[5mC]*dC*dG*dG*dG*dC*dG*dA*dG*dC*dA*eT*eG*eA*eG) [compound 19252] | 32.36
19253 (antisense eA*eA*eT*e[5mC]*dT*dG*dC*dT*dT*dG*dA*dC*dC*dC*e[5mC]*eA*eA*eA) [compound 19253] | 0.00
19254 (antisense eG*eA*eA*eA*dC*dC*dC*dC*dT*dG*dT*dA*dG*dC*eA*eA*eT*e[5mC]) [compound 19254] | 0.00
19255 (antisense eG*eT*eA*eT*dC*dA*dG*dA*dA*dA*dC*dC*dC*dC*eT*eG*eT*eA) [compound 19255] | 36.13

Substance | % Inhibition (Inhibition of CD40 mRNA Levels by Chimeric Phosphorothioate Oligonucleotides) [%]
19256 (antisense eG*e[5mC]*eT*e[5mC]*dG*dC*dA*dG*dA*dT*dG*dG*dT*dA*eT*e[5mC]*eA*eG) [compound 19256] | 64.65
19257 (antisense eG*e[5mC]*eA*eG*dG*dG*dC*dT*dC*dG*dC*dA*dG*dA*eT*eG*eG*eT) [compound 19257] | 74.95
19258 (antisense eT*eG*eG*eG*dC*dA*dG*dG*dG*dC*dT*dC*dG*dC*eA*eG*eA*eT) [compound 19258] | 0.00
19259 (antisense eG*eA*e[5mC]*eT*dG*dG*dG*dC*dA*dG*dG*dG*dC*dT*e[5mC]*eG*e[5mC]*eA) [compound 19259] | 82.00
19260 (antisense e[5mC]*eA*eT*eT*dG*dG*dA*dG*dA*dA*dG*dA*dA*dG*e[5mC]*e[5mC]*eG*eA) [compound 19260] | 41.31
19261 (eG*eA*eT*eG*dA*dC*dA*dC*dA*dT*dT*dG*dG*dA*eG*eA*eA*eG; antisense) [compound 19261] | 13.81
19262 (eG*e[5mC]*eA*eG*dA*dT*dG*dA*dC*dA*dC*dA*dT*dT*eG*eG*eA*eG; antisense) [compound 19262] | 78.48
19263 (eT*e[5mC]*eG*eA*dA*dA*dG*dC*dA*dG*dA*dT*dG*dA*e[5mC]*eA*e[5mC]*eA; antisense) [compound 19263] | 59.28
19264 (eG*eT*e[5mC]*e[5mC]*dA*dA*dG*dG*dG*dT*dG*dA*dC*dA*eT*eT*eT*eT; antisense) [compound 19264] | 70.99
19265 (e[5mC]*eA*e[5mC]*eA*dG*dC*dT*dT*dG*dT*dC*dC*dA*dA*eG*eG*eG*eT; antisense) [compound 19265] | 0.00
19266 (eT*eT*eG*eG*dT*dC*dT*dC*dA*dC*dA*dG*dC*dT*eT*eG*eT*e[5mC]; antisense) [compound 19266] | 45.92
19267 (e[5mC]*eA*eG*eG*dT*dC*dT*dT*dT*dG*dG*dT*dC*dT*e[5mC]*eA*e[5mC]*eA; antisense) [compound 19267] | 63.95
19268 (e[5mC]*eT*eG*eT*dT*dG*dC*dA*dC*dA*dA*dC*dC*dA*eG*eG*eT*e[5mC]; antisense) [compound 19268] | 82.32
19269 (eG*eT*eT*eT*dG*dT*dG*dC*dC*dT*dG*dC*dC*dT*eG*eT*eT*eG; antisense) [compound 19269] | 70.10
19270 (eG*eT*e[5mC]*eT*dT*dG*dT*dT*dT*dG*dT*dG*dC*dC*eT*eG*e[5mC]*e[5mC]; antisense) [compound 19270] | 68.95
19271 (e[5mC]*e[5mC]*eA*e[5mC]*dA*dG*dA*dC*dA*dA*dC*dA*dT*dC*eA*eG*eT*e[5mC]; antisense) [compound 19271] | 11.22
19272 (e[5mC]*eT*eG*eG*dG*dG*dA*dC*dC*dA*dC*dA*dG*dA*e[5mC]*eA*eA*e[5mC]; antisense) [compound 19272] | 9.04
